Measured values from PMC5762315, “Inhibition of polo-like kinase 4 (PLK4): a new therapeutic option for rhabdoid tumors and pediatric medulloblastoma” (Oncotarget, 2017).
Values joined by “and” are separate entries in the source; they are usually repeats but may differ in a detail not shown here. Equal entries are not always repeated.

Legend:
Assay in all cases: biochemical
Assay type in all cases: biochemical
[1] = target: various kinases (Homo sapiens, UniProt O95819); conditions: MAP4K4 (HGK)
[2] = target: various kinases (Homo sapiens, UniProt P00533, L858R/T790M); conditions: EGFR (ErbB1) T790M L858R
[3] = target: various kinases (Homo sapiens, UniProt P06241); conditions: FYN
[4] = target: various kinases (Homo sapiens, UniProt P07332); conditions: FES (FPS)
Sequence of various kinases (Homo sapiens, UniProt P07332) (P07332 whole entry): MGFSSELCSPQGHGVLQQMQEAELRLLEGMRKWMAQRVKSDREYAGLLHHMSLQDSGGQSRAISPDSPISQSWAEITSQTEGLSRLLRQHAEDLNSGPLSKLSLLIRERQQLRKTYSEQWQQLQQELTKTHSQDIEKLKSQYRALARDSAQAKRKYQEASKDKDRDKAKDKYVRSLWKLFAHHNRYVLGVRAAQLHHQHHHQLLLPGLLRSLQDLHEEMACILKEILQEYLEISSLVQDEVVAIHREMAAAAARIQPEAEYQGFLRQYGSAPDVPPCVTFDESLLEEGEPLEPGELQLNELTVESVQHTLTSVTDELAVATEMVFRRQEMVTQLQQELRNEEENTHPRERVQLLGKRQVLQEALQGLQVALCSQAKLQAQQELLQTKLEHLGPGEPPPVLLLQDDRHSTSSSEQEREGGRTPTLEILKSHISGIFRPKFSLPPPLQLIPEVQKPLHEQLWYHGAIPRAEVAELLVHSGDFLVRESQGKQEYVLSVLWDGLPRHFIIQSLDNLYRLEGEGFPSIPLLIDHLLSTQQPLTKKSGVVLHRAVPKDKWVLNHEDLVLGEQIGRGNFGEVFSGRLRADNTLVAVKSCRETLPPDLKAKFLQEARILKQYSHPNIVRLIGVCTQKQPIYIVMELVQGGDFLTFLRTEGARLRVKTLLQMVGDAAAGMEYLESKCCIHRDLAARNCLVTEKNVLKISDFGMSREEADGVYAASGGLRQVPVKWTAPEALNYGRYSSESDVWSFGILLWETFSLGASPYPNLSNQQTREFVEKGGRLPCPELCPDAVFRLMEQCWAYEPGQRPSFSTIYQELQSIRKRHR

[5] = target: various kinases (Homo sapiens, UniProt P07947); conditions: kinase YES1; ZLYTE
Sequence of various kinases (Homo sapiens, UniProt P07947) (P07947 whole entry): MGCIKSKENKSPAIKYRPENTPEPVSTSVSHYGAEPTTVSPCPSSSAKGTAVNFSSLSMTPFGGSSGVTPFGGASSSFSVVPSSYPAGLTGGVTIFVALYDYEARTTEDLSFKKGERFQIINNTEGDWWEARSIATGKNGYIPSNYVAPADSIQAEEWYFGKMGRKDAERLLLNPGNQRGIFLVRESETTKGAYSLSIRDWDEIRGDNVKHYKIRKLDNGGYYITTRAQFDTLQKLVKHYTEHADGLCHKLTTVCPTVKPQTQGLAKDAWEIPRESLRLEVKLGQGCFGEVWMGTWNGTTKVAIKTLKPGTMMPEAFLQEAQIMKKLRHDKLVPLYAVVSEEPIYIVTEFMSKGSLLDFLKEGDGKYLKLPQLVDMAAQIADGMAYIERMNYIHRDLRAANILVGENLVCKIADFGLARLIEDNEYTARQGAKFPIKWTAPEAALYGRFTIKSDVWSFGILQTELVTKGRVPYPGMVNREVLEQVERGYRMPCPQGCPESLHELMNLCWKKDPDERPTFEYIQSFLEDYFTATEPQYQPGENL

[6] = target: various kinases (Homo sapiens, UniProt P10721, V560G); conditions: KIT V560G
[7] = target: various kinases (Homo sapiens, UniProt P16234); conditions: PDGFRA (PDGFR alpha)
[8] = target: various kinases (Homo sapiens, UniProt P24941); conditions: CDK2/cyclin A
[9] = target: various kinases (Homo sapiens, UniProt P25098); conditions: ADRBK1 (GRK2)
[10] = target: various kinases (Homo sapiens, UniProt P43250); conditions: GRK6
[11] = target: various kinases (Homo sapiens, UniProt P43405); conditions: kinase SYK; ZLYTE
[12] = target: various kinases (Homo sapiens, UniProt P45983); conditions: MAPK8 (JNK1)
[13] = target: various kinases (Homo sapiens, UniProt P48729); conditions: CSNK1A1 (CK1 alpha 1)
[14] = target: various kinases (Homo sapiens, UniProt P49841); conditions: GSK3B (GSK3 beta)
[15] = target: various kinases (Homo sapiens, UniProt P51955); conditions: NEK2
[16] = target: various kinases (Homo sapiens, UniProt P54646)
Sequence of various kinases (Homo sapiens, UniProt P54646) (P54646 whole entry): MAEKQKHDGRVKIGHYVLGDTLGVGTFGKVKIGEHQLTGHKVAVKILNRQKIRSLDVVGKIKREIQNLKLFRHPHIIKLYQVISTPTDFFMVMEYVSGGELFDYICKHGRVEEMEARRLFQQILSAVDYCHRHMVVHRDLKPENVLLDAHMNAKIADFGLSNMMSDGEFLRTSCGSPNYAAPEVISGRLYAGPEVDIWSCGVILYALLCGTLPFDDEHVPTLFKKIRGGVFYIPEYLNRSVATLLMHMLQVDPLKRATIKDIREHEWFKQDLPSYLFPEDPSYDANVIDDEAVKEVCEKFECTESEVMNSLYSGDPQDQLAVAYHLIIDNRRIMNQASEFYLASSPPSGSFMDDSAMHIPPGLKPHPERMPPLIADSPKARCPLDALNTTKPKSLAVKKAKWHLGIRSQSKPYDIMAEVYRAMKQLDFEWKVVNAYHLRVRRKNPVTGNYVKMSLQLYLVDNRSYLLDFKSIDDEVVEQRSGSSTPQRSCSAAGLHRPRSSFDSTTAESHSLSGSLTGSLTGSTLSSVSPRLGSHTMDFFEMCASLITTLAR

[17] = target: various kinases (Homo sapiens, UniProt Q13131)
Sequence of various kinases (Homo sapiens, UniProt Q13131) (Q13131 whole entry): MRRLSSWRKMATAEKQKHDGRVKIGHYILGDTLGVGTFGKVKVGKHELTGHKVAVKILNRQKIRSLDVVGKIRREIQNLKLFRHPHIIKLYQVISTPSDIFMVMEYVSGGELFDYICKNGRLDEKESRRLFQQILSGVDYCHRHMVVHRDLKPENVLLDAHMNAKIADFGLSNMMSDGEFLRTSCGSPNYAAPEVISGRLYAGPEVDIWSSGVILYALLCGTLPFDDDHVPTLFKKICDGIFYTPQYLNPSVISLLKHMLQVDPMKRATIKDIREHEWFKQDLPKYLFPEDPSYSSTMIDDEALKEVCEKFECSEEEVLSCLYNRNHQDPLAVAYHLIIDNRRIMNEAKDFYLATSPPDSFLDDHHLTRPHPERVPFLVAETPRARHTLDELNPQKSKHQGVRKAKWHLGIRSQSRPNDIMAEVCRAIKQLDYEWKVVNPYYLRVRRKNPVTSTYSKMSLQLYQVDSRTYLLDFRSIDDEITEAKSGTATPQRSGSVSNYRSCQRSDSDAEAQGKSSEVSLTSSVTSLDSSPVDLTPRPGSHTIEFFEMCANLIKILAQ

[18] = target: various kinases (Homo sapiens, UniProt Q13177); conditions: PAK2 (PAK65)
[19] = target: various kinases (Homo sapiens, UniProt Q13554); conditions: CAMK2B (CaMKII beta)
Sequence of various kinases (Homo sapiens, UniProt Q13554) (Q13554 whole entry): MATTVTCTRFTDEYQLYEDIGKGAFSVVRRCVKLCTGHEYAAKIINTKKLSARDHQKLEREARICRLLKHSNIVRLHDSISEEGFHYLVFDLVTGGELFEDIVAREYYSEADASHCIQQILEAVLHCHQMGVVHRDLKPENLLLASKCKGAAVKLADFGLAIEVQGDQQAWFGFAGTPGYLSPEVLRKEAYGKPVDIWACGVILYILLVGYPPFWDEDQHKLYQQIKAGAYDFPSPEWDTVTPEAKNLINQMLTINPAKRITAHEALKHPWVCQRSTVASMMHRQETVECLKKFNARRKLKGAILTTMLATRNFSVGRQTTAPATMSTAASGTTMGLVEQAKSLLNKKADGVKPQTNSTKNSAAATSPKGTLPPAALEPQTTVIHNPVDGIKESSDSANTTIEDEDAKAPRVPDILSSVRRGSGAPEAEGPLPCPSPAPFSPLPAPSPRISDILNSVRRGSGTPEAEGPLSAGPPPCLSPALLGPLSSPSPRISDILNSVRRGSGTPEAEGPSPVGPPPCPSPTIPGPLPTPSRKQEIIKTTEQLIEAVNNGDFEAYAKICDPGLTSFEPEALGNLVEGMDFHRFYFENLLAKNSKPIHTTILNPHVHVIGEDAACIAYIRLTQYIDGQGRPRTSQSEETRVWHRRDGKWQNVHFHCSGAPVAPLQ

[20] = target: various kinases (Homo sapiens, UniProt Q13557); conditions: CAMK2D (CaMKII delta)
[21] = target: various kinases (Homo sapiens, UniProt Q13627); conditions: DYRK1A
[22] = target: various kinases (Homo sapiens, UniProt Q16539)
Sequence of various kinases (Homo sapiens, UniProt Q16539) (Q16539 whole entry): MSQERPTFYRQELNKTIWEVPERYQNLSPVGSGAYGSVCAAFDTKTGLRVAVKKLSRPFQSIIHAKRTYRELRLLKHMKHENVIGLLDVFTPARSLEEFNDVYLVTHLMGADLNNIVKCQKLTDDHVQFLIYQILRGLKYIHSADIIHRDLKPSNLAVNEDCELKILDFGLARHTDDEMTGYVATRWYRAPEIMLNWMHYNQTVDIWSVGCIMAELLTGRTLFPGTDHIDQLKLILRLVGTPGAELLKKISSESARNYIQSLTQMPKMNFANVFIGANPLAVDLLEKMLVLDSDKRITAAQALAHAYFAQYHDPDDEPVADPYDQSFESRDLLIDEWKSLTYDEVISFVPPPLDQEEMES

[23] = target: various kinases (Homo sapiens, UniProt Q16644); conditions: MAPKAPK3
[24] = target: various kinases (Homo sapiens, UniProt Q6DT37); conditions: CDC42 BPG (MRCKG)
[25] = target: various kinases (Homo sapiens, UniProt Q8IY84); conditions: NIM1K
[26] = target: T1, various kinases (Homo sapiens, UniProt Q96PF2); conditions: kinase STK22B (TSSK2); ZLYTE
T1 sequence (Q96PF2 1-358): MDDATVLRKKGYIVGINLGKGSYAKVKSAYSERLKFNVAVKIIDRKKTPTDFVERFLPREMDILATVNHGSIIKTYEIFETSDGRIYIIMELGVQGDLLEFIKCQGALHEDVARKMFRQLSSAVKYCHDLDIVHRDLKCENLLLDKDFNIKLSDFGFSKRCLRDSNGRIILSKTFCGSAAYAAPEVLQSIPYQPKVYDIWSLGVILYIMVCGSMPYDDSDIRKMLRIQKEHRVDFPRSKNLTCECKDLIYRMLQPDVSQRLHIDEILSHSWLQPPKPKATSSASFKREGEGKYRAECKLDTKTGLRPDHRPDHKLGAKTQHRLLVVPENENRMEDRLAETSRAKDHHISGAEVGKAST

[27] = target: various kinases (Homo sapiens, UniProt Q96PY6); conditions: NEK1
[28] = target: various kinases (Homo sapiens, UniProt Q9H1R3); conditions: MYLK2 (skMLCK)
[29] = target: various kinases (Homo sapiens, UniProt Q9H4B4); conditions: kinase PLK3; ZLYTE
Sequence of various kinases (Homo sapiens, UniProt Q9H4B4) (Q9H4B4 whole entry): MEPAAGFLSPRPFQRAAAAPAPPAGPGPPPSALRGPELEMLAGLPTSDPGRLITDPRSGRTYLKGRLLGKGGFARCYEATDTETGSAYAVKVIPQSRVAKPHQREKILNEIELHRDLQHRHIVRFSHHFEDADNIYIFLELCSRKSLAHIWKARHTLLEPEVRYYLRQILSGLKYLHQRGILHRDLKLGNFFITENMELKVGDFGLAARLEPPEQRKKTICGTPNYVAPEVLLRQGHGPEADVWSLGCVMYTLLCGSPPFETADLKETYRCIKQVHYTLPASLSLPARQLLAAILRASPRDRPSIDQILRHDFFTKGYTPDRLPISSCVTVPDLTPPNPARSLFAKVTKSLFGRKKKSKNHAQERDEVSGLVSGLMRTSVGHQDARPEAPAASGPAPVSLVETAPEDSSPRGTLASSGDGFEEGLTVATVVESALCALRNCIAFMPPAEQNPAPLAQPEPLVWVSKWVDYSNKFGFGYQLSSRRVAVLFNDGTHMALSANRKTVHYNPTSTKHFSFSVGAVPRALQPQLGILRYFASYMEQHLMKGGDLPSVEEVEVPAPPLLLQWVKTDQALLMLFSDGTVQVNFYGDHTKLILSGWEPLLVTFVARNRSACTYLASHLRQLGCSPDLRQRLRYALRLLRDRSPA

[30] = target: various kinases (Homo sapiens, UniProt Q9HC98); conditions: NEK6
Sequence of various kinases (Homo sapiens, UniProt Q9HC98) (Q9HC98 whole entry): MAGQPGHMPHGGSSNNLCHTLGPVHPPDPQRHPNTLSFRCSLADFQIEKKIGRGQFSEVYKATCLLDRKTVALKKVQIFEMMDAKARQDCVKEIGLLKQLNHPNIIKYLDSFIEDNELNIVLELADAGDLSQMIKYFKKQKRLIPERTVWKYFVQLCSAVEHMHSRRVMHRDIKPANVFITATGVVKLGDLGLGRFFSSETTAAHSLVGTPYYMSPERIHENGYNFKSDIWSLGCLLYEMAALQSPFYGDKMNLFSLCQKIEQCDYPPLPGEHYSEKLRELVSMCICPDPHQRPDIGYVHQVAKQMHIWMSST

[31] = target: various kinases (Homo sapiens, UniProt Q9HCP0); conditions: CSNK1G1 (CK1 gamma 1)
[32] = target: various kinases (Homo sapiens, UniProt Q9UBS0); conditions: kinase RPS6KB2 (p70S6Kb); ZLYTE
Sequence of various kinases (Homo sapiens, UniProt Q9UBS0) (Q9UBS0 whole entry): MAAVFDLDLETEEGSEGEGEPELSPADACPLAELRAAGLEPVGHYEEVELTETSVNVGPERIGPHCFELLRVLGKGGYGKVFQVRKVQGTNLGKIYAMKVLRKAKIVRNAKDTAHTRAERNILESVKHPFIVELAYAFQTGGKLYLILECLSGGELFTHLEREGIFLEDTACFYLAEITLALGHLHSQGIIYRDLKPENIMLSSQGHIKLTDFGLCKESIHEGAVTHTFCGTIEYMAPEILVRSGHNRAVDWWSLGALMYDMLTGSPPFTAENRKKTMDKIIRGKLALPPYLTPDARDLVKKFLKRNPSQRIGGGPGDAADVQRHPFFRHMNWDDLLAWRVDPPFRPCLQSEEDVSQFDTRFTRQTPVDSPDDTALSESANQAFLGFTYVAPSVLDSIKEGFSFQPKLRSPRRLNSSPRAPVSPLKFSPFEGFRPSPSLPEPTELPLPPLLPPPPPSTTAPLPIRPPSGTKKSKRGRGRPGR

SMILES: COc1ccc2c(c1)[C@]1(C[C@H]1c1ccc3c(/C=C/c4ccc(CN5C[C@@H](C)O[C@@H](C)C5)cc4)n[nH]c3c1)C(=O)N2 [CFI-400945]
- % Inhibition [1]: 9% and 13%
- % Inhibition [2]: 5% and 4%
- % Inhibition [3]: 6% and 5%
- % Inhibition [4]: 13% and 10%
- % Inhibition Average [5]: 17%
- % Inhibition Duplicate #1 [5]: 16%
- % Inhibition Duplicate #2 [5]: 18%
- % Inhibition [6]: 11% and 7%
- % Inhibition [7]: 3% and 2%
- % Inhibition [8]: 7% and 2%
- % Inhibition [9]: 5% and 4%
- % Inhibition [10]: 5%
- % Inhibition Average [11]: 11%
- % Inhibition Duplicate #1 [11]: 11%
- % Inhibition Duplicate #2 [11]: 11%
- % Inhibition [12]: -3% and -1%
- % Inhibition [13]: 7%
- % Inhibition [14]: 7% and 6%
- % Inhibition [15]: -1% and 1%
- % Inhibition ([16]; AMPK (A2/B1/G2)): 27% and 22%
- % Inhibition ([16]; AMPK (A2/B1/G3)): 9% and 15%
- % Inhibition ([16]; AMPK (A2/B2/G3)): 9% and 10%
- % Inhibition ([16]; AMPK A2/B1/G1): 5% and 6%
- % Inhibition ([17]; AMPK (A1/B2/G2)): 25% and 20%
- % Inhibition ([17]; AMPK (A1/B2/G3)): 13% and 21%
- % Inhibition ([17]; AMPK A1/B1/G1): 14% and 9%
- % Inhibition [18]: 17% and 8%
- % Inhibition [19]: 13% and 14%
- % Inhibition [20]: 28% and 37%
- % Inhibition [21]: 2% and 4%
- % Inhibition ([22]; MAPK14 (p38 alpha)): 8% and 0%
- % Inhibition ([22]; MAPK14 (p38 alpha) Direct): 11%
- % Inhibition [23]: 2% and -4%
- % Inhibition [24]: 0% and -1%
- % Inhibition [25]: 2% and 3%
- % Inhibition Average [26]: 3%
- % Inhibition Duplicate #1 [26]: 4%
- % Inhibition Duplicate #2 [26]: 2%
- % Inhibition [27]: 7% and 2%
- % Inhibition [28]: 6% and 7%
- % Inhibition Average [29]: -2%
- % Inhibition Duplicate #1 [29]: -7%
- % Inhibition Duplicate #2 [29]: 3%
- % Inhibition [30]: 8% and 13%
- % Inhibition [31]: -1% and 3%
- % Inhibition Average [32]: 5%
- % Inhibition Duplicate #1 [32]: 5%
- % Inhibition Duplicate #2 [32]: 4%
